Results: PubChem BioAssay (NCI)
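Cells were grown in 96-well plates and exposed to each compound for 48 hours at five concentrations; endpoints were interpolated linearly between bracketing concentrations, or set to the highest concentration if not reached. At the GI50, growth is halved. TGI denotes the concentration required for complete inhibition of growth.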

Experiments:
Assay in all cases: growth of human tumour cells (NCI), 48 h
RPMI-8226 leukemia = test system: RPMI-8226 leukemia
ACHN renal = test system: ACHN renal
UACC-257 melanoma = test system: UACC-257 melanoma
MDA-MB-435 = test system: MDA-MB-435
NCI/ADR-RES ovarian = test system: NCI/ADR-RES ovarian
HCT-116 colon = test system: HCT-116 colon
IGROV1 ovarian = test system: IGROV1 ovarian
CAKI-1 renal = test system: CAKI-1 renal
SW-620 colon = test system: SW-620 colon
SK-OV-3 ovarian = test system: SK-OV-3 ovarian
NCI-H460 lung = test system: NCI-H460 lung
KM12 colon = test system: KM12 colon
HOP-92 NSCLC = test system: HOP-92 NSCLC
LOX IMVI melanoma = test system: LOX IMVI melanoma
HCT-15 colon = test system: HCT-15 colon
SF-268 CNS = test system: SF-268 CNS
SK-MEL-5 melanoma = test system: SK-MEL-5 melanoma
EKVX NSCLC = test system: EKVX NSCLC
A498 renal = test system: A498 renal
SN12C renal = test system: SN12C renal
MDA-MB-231 breast = test system: MDA-MB-231 breast
SF-539 CNS = test system: SF-539 CNS
786-0 renal = test system: 786-0 renal
OVCAR-8 ovarian = test system: OVCAR-8 ovarian
OVCAR-4 ovarian = test system: OVCAR-4 ovarian
CCRF-CEM leukemia = test system: CCRF-CEM leukemia
SK-MEL-2 melanoma = test system: SK-MEL-2 melanoma
DU-145 prostate = test system: DU-145 prostate
U251 CNS = test system: U251 CNS
MALME-3M melanoma = test system: MALME-3M melanoma
SNB-75 CNS = test system: SNB-75 CNS
HOP-62 NSCLC = test system: HOP-62 NSCLC
K-562 leukemia = test system: K-562 leukemia
HL-60(TB) leukemia = test system: HL-60(TB) leukemia
SF-295 CNS = test system: SF-295 CNS
MDA-MB-468 breast = test system: MDA-MB-468 breast
OVCAR-3 ovarian = test system: OVCAR-3 ovarian
NCI-H522 lung = test system: NCI-H522 lung
TK-10 renal = test system: TK-10 renal
MCF7 breast = test system: MCF7 breast
HCC-2998 colon = test system: HCC-2998 colon
A549 NSCLC = test system: A549 NSCLC
SK-MEL-28 melanoma = test system: SK-MEL-28 melanoma
UO-31 renal = test system: UO-31 renal
BT-549 breast = test system: BT-549 breast
OVCAR-5 ovarian = test system: OVCAR-5 ovarian
MOLT-4 leukemia = test system: MOLT-4 leukemia
T-47D breast = test system: T-47D breast
NCI-H23 lung = test system: NCI-H23 lung
SR leukemia = test system: SR leukemia
HT29 colon = test system: HT29 colon
UACC-62 melanoma = test system: UACC-62 melanoma
M14 melanoma = test system: M14 melanoma
HS 578T breast = test system: HS 578T breast
NCI-H226 lung = test system: NCI-H226 lung
COLO 205 colon = test system: COLO 205 colon
SNB-19 CNS = test system: SNB-19 CNS
RXF 393 renal = test system: RXF 393 renal
PC-3 prostate = test system: PC-3 prostate

In the case of `COc1ccc2[nH]c(=O)c(CSc3ccccc3Nc3nccc(-c4ccc(C(F)(F)F)cc4)n3)cc2c1`, the GI50 (RPMI-8226 leukemia) is reported as 3.27 µM, the TGI (RPMI-8226 leukemia) is reported as 15.4 µM and the GI50 (ACHN renal) is reported as 5 µM. The TGI (ACHN renal) was 16.9 µM, the GI50 (UACC-257 melanoma) was 13 µM and the TGI (UACC-257 melanoma) was 25.7 µM. It also gave a GI50 (MDA-MB-435) of 8.95 µM, a TGI (MDA-MB-435) of 21.1 µM and a GI50 (NCI/ADR-RES ovarian) of 4.32 µM. For the same compound, the TGI (NCI/ADR-RES ovarian) was 17.5 µM, the GI50 (HCT-116 colon) was 3.14 µM and the TGI (HCT-116 colon) was 10.6 µM. It also gave a GI50 (IGROV1 ovarian) of 9.67 µM, a TGI (IGROV1 ovarian) of 21.4 µM and a GI50 (CAKI-1 renal) of 9.2 µM. The TGI (CAKI-1 renal) was 21.2 µM, the GI50 (SW-620 colon) was 5.43 µM and the TGI (SW-620 colon) was 18.2 µM. The GI50 (SK-OV-3 ovarian) was 15.8 µM, the TGI (SK-OV-3 ovarian) was 29.3 µM and the GI50 (NCI-H460 lung) was 4.05 µM. It also gave a TGI (NCI-H460 lung) of 14.5 µM, a GI50 (KM12 colon) of 5.6 µM and a TGI (KM12 colon) of 17.9 µM. It also gave a GI50 (HOP-92 NSCLC) of 2.2 µM, a TGI (HOP-92 NSCLC) of 17.3 µM and a GI50 (LOX IMVI melanoma) of 3.06 µM. For the same compound, the TGI (LOX IMVI melanoma) was 11.5 µM, the GI50 (HCT-15 colon) was 4.69 µM and the TGI (HCT-15 colon) was 16.7 µM. The GI50 (SF-268 CNS) was 5.15 µM, the TGI (SF-268 CNS) was 18.2 µM and the GI50 (SK-MEL-5 melanoma) was 10.5 µM. The TGI (SK-MEL-5 melanoma) was 22.2 µM, the GI50 (EKVX NSCLC) was 10.3 µM and the TGI (EKVX NSCLC) was 22.4 µM. It also gave a GI50 (A498 renal) of 13.8 µM, a TGI (A498 renal) of 26.7 µM and a GI50 (SN12C renal) of 3.74 µM. The TGI (SN12C renal) was 13.1 µM, the GI50 (MDA-MB-231 breast) was 11.1 µM and the TGI (MDA-MB-231 breast) was 23.1 µM. It also gave a GI50 (SF-539 CNS) of 10.3 µM, a TGI (SF-539 CNS) of 21.9 µM and a GI50 (786-0 renal) of 6.43 µM. For the same compound, the TGI (786-0 renal) was 19.1 µM, the GI50 (OVCAR-8 ovarian) was 9.59 µM and the TGI (OVCAR-8 ovarian) was 21.4 µM. The GI50 (OVCAR-4 ovarian) was 3.42 µM, the TGI (OVCAR-4 ovarian) was 13.7 µM and the GI50 (CCRF-CEM leukemia) was 3.84 µM. The TGI (CCRF-CEM leukemia) was 18.5 µM, the GI50 (SK-MEL-2 melanoma) was 10.8 µM and the TGI (SK-MEL-2 melanoma) was 22.7 µM. It also gave a GI50 (DU-145 prostate) of 8.89 µM, a TGI (DU-145 prostate) of 21 µM and a GI50 (U251 CNS) of 10.5 µM. It also gave a TGI (U251 CNS) of 22.3 µM, a GI50 (MALME-3M melanoma) of 12 µM and a TGI (MALME-3M melanoma) of 24.3 µM. For the same compound, the GI50 (SNB-75 CNS) was 12.5 µM, the TGI (SNB-75 CNS) was 25.5 µM and the GI50 (HOP-62 NSCLC) was 15.4 µM. The TGI (HOP-62 NSCLC) was 28.7 µM, the GI50 (K-562 leukemia) was 4.46 µM and the TGI (K-562 leukemia) was 21.6 µM. For the same compound, the GI50 (HL-60(TB) leukemia) was 8.6 µM, the TGI (HL-60(TB) leukemia) was 28.2 µM and the GI50 (SF-295 CNS) was 10.1 µM. The TGI (SF-295 CNS) was 21.6 µM, the GI50 (MDA-MB-468 breast) was 2.65 µM and the TGI (MDA-MB-468 breast) was 10.2 µM. It also gave a GI50 (OVCAR-3 ovarian) of 3.48 µM, a TGI (OVCAR-3 ovarian) of 15.2 µM and a GI50 (NCI-H522 lung) of 3.82 µM. For the same compound, the TGI (NCI-H522 lung) was 16.2 µM, the GI50 (TK-10 renal) was 17.4 µM and the TGI (TK-10 renal) was 31.2 µM. It also gave a GI50 (MCF7 breast) of 2.97 µM, a TGI (MCF7 breast) of 11 µM and a GI50 (HCC-2998 colon) of 5.27 µM. The TGI (HCC-2998 colon) was 18.1 µM, the GI50 (A549 NSCLC) was 5.28 µM and the TGI (A549 NSCLC) was 18.5 µM. The GI50 (SK-MEL-28 melanoma) was 11.8 µM, the TGI (SK-MEL-28 melanoma) was 24.1 µM and the GI50 (UO-31 renal) was 4.5 µM. The TGI (UO-31 renal) was 18.1 µM, the GI50 (BT-549 breast) was 6.57 µM and the TGI (BT-549 breast) was 19.7 µM. It also gave a GI50 (OVCAR-5 ovarian) of 13 µM, a TGI (OVCAR-5 ovarian) of 25.7 µM and a GI50 (MOLT-4 leukemia) of 3.59 µM. For the same compound, the TGI (MOLT-4 leukemia) was 15.7 µM, the GI50 (T-47D breast) was 5.66 µM and the TGI (T-47D breast) was 20.3 µM. The GI50 (NCI-H23 lung) was 6.28 µM, the TGI (NCI-H23 lung) was 19.3 µM and the GI50 (SR leukemia) was 2.91 µM. The TGI (SR leukemia) was 11.1 µM, the GI50 (HT29 colon) was 3.64 µM and the TGI (HT29 colon) was 12.7 µM. It also gave a GI50 (UACC-62 melanoma) of 11.8 µM, a TGI (UACC-62 melanoma) of 24 µM and a GI50 (M14 melanoma) of 11.2 µM. It also gave a TGI (M14 melanoma) of 23.2 µM, a GI50 (HS 578T breast) of 13.2 µM and a TGI (HS 578T breast) of 36.5 µM. The GI50 (NCI-H226 lung) was 4.76 µM, the TGI (NCI-H226 lung) was 18.8 µM and the GI50 (COLO 205 colon) was 11.1 µM. The TGI (COLO 205 colon) was 23.1 µM, the GI50 (SNB-19 CNS) was 13.5 µM and the TGI (SNB-19 CNS) was 26.3 µM. For the same compound, the GI50 (RXF 393 renal) was 3.03 µM, the TGI (RXF 393 renal) was 8.62 µM and the GI50 (PC-3 prostate) was 3.2 µM. It also gave a TGI (PC-3 prostate) of 12.6 µM.
